# Read-outs that look alike come from different tables or passages of the source.
# Test system: RPE-Neo or RPE-MYC or RPE-MYC expressing an EGFP-Histone 2B fusion protein
# Assay: Phenotypic screening assay (arrest in mitosis, change in DNA content, cell death; GE IN-Cell Analyzer 2000)
# Format: cell-based
# Settings: Homo sapiens, compounds 20 nM to 20 μM, 24, 48 or 72 hours
# [1] = read-out: Min. Effective conc. for Polyploidy (≥10%)
# [2] = min. effective conc., read-out: Cell Death (>30%)
# [3] = min. effective conc., read-out: Mitotic Arrest (≥10%)
Compound,minimal effective concentration [1],minimal effective concentration [2],minimal effective concentration [3]
"COC(=O)C1=C(O)c2ccccc2N(Cc2cc(F)ccc2F)C(=O)C1 [Example 19, Methyl 1-(2,5-difluorobenzyl)-5-hydroxy-2-oxo-2,3-dihydro-1H-benzo[b]azepine-4-carboxylate]",30 to 1000 µM,30 to 1000 µM,30 to 1000 µM
"CCC(=O)C1=C(O)c2ccccc2N(Cc2ccc(C)c(F)c2)C(=O)C1 [Example 55, 1-(3-fluoro-4-methylbenzyl)-5-hydroxy-4-propionyl-1,3-dihydro-2H-benzo[b]azepin-2-one]",0.001 to 1 µM,,0.001 to 1 µM
"COC(=O)C1=C(O)c2ccccc2N(Cc2ccc(OC(F)F)cc2)C(=O)C1 [Example 33, Methyl 1-(4-(difluoromethoxy)benzyl)-5-hydroxy-2-oxo-2,3-dihydro-1H-benzo[b]azepine-4-carboxylate]",1 to 10 µM,1 to 10 µM,1 to 10 µM
"CNC(=O)C1=C(O)c2ccccc2N(Cc2ccc(C)c(F)c2)C(=O)C1 [Example 63, 1-(3-fluoro-4-methylbenzyl)-5-hydroxy-N-methyl-2-oxo-2,3-dihydro-1H-benzo[b]azepine-4-carboxamide]",1 to 10 µM,1 to 10 µM,1 to 10 µM
"COC(=O)C1=C(O)c2ccccc2N(Cc2ccc(C(F)(F)F)cc2)C(=O)C1 [Example 40, Methyl 5-hydroxy-2-oxo-1-(4-(trifluoromethyl)benzyl)-2,3-dihydro-1H-benzo[b]azepine-4-carboxylate]",1 to 10 µM,1 to 10 µM,1 to 10 µM
"Cc1ccc(CN2C(=O)CC(C(=O)C(F)(F)F)=C(O)c3ccccc32)cc1F [Example 68, 1-(3-fluoro-4-methylbenzyl)-5-hydroxy-4-(2,2,2-trifluoroacetyl)-1,3-dihydro-2H-benzo[b]azepin-2-one]",10 to 30 µM,10 to 30 µM,10 to 30 µM
"COC(=O)C1=C(O)c2ccccc2N(Cc2ccc(C)c(C)c2)C(=O)C1 [Example 36, Methyl 1-(3,4-dimethylbenzyl)-5-hydroxy-2-oxo-2,3-dihydro-1H-benzo[b]azepine-4-carboxylate]",10 to 30 µM,10 to 30 µM,10 to 30 µM
"COC(=O)C1=C(O)c2ccccc2N(Cc2ccc(OC)cc2)C(=O)C1 [Example 34, Methyl 5-hydroxy-1-(4-methoxybenzyl)-2-oxo-2,3-dihydro-1H-benzo[b]azepine-4-carboxylate]",0.001 to 1 µM,0.001 to 1 µM,0.001 to 1 µM
"Cc1ccc(CN2C(=O)CC(C(=O)C3CC3)=C(O)c3ccccc32)cc1F [Example 58, 4-(cyclopropanecarbonyl)-1-(3-fluoro-4-methylbenzyl)-5-hydroxy-1,3-dihydro-2H-benzo[b]azepin-2-one]",0.001 to 1 µM,0.001 to 1 µM,0.001 to 1 µM
"COC(=O)C1=C(O)c2ccccc2N(Cc2ccc(C)c(F)c2)C(=O)C1 [Example 41, Methyl 1-(3-fluoro-4-methylbenzyl)-5-hydroxy-2-oxo-2,3-dihydro-1H-benzo[b]azepine-4-carboxylate]",0.001 to 1 µM,0.001 to 1 µM,0.001 to 1 µM
"COC(=O)C1=C(O)c2ccccc2N(Cc2ccc(C)c(Br)c2)C(=O)C1 [Example 46, Methyl 1-(3-bromo-4-methylbenzyl)-5-hydroxy-2-oxo-2,3-dihydro-1H-benzo[b]azepine-4-carboxylate]",1 to 10 µM,1 to 10 µM,1 to 10 µM
"COC(=O)C1=C(O)c2ccccc2N(Cc2ccc(OC)c(F)c2)C(=O)C1 [Example 48, Methyl 1-(3-fluoro-4-methoxybenzyl)-5-hydroxy-2-oxo-2,3-dihydro-1H-benzo[b]azepine-4-carboxylate]",0.001 to 1 µM,0.001 to 1 µM,0.001 to 1 µM
"COC(=O)C1=C(O)c2ccccc2N(Cc2ccc(C(C)C)cc2)C(=O)C1 [Example 30, Methyl 5-hydroxy-1-(4-isopropylbenzyl)-2-oxo-2,3-dihydro-1H-benzo[b]azepine-4-carboxylate]",10 to 30 µM,10 to 30 µM,10 to 30 µM
"COC(=O)C1=C(O)c2ccccc2N(Cc2ccc(C)cc2)C(=O)C1 [Example 7, Methyl 5-hydroxy-1-(4-methylbenzyl)-2-oxo-2,3-dihydro-1H-benzo[b]azepine-4-carboxylate]",0.001 to 1 µM,0.001 to 1 µM,0.001 to 1 µM
"COC(=O)C1=C(O)c2ccccc2N(Cc2ccccc2)C(=O)C1 [Example 1, Methyl 1-benzyl-5-hydroxy-2-oxo-2,3-dihydro-1H-benzo[b]azepine-4-carboxylate]",30 to 1000 µM,,30 to 1000 µM
"COC(=O)C1=C(O)c2cnccc2N(Cc2ccc(C)c(F)c2)C(=O)C1 [Example 53, Methyl 1-(3-fluoro-4-methylbenzyl)-5-hydroxy-2-oxo-2,3-dihydro-1H-pyrido[4,3-b] azepine-4-carboxylate]",1 to 10 µM,1 to 10 µM,1 to 10 µM
"Cc1ccc(CN2C(=O)CC(C(=O)C(C)C)=C(O)c3ccccc32)cc1F [Example 59, 1-(3-fluoro-4-methylbenzyl)-5-hydroxy-4-isobutyryl-1,3-dihydro-2H-benzo[b]azepin-2-one]",0.001 to 1 µM,0.001 to 1 µM,0.001 to 1 µM
"COC(=O)C1=C(O)c2ccccc2N(Cc2ccc3ccccc3c2)C(=O)C1 [Example 14, Methyl 5-hydroxy-1-(naphthalen-2-ylmethyl)-2-oxo-2,3-dihydro-1H-benzo[b]azepine-4-carboxylate]",1 to 10 µM,1 to 10 µM,1 to 10 µM
"COC(=O)C1=C(O)c2ccccc2N(Cc2ccc(F)cc2)C(=O)C1 [Example 10, Methyl 1-(4-fluorobenzyl)-5-hydroxy-2-oxo-2,3-dihydro-1H-benzo[b]azepine-4-carboxylate]",30 to 1000 µM,,30 to 1000 µM
"CCCC(=O)C1=C(O)c2ccccc2N(Cc2ccc(C)c(F)c2)C(=O)C1 [Example 57, 4-butyryl-1-(3-fluoro-4-methylbenzyl)-5-hydroxy-1,3-dihydro-2H-benzo[b]azepin-2-one]",1 to 10 µM,1 to 10 µM,0.001 to 1 µM
"CCNC(=O)C1=C(O)c2ccccc2N(Cc2ccc(C)c(F)c2)C(=O)C1 [Example 64, N-ethyl-1-(3-fluoro-4-methylbenzyl)-5-hydroxy-2-oxo-2,3-dihydro-1H-benzo[b]azepine-4-carboxamide]",1 to 10 µM,1 to 10 µM,1 to 10 µM
"CNC(=S)C1=C(O)c2ccccc2N(Cc2ccc(C)c(F)c2)C(=O)C1 [Example 67, 1-(3-fluoro-4-methylbenzyl)-5-hydroxy-N-methyl-2-oxo-2,3-dihydro-1H-benzo[b]azepine-4-carbothioamide]",10 to 30 µM,10 to 30 µM,10 to 30 µM
"COC(=O)C1=C(O)c2ccccc2N(Cc2ccc(OC)c(OC)c2)C(=O)C1 [Example 51, Methyl 1-(3,4-dimethoxybenzyl)-5-hydroxy-2-oxo-2,3-dihydro-1H-benzo[b]azepine-4-carboxylate]",30 to 1000 µM,30 to 1000 µM,30 to 1000 µM
"COC(=O)C1=C(O)c2ccccc2N(Cc2ccccc2F)C(=O)C1 [Example 9, Methyl 1-(2-fluorobenzyl)-5-hydroxy-2-oxo-2,3-dihydro-1H-benzo[b]azepine-4-carboxylate]",30 to 1000 µM,,30 to 1000 µM
"Cc1ccc(CN2C(=O)CC(C(=O)C(C)(C)C)=C(O)c3ccccc32)cc1F [Example 60, 1-(3-fluoro-4-methylbenzyl)-5-hydroxy-4-pivaloyl-1,3-dihydro-2H-benzo[b]azepin-2-one]",1 to 10 µM,1 to 10 µM,1 to 10 µM
"Cc1ccc(CN2C(=O)CC(C(=O)NC3CCCCC3)=C(O)c3ccccc32)cc1F [Example 66, N-cyclohexyl-1-(3-fluoro-4-methylbenzyl)-5-hydroxy-2-oxo-2,3-dihydro-1H-benzo[b]azepine-4-carboxamide]",10 to 30 µM,10 to 30 µM,10 to 30 µM
"COC(=O)C1=C(O)c2ccccc2N(Cc2cc(C)cc(C)c2)C(=O)C1 [Example 6, Methyl 1-(3,5-dimethylbenzyl)-5-hydroxy-2-oxo-2,3-dihydro-1H-benzo[b]azepine-4-carboxylate]",30 to 1000 µM,30 to 1000 µM,30 to 1000 µM
"COC(=O)C1=C(O)c2ccccc2N(Cc2ccc(C)c(Cl)c2)C(=O)C1 [Example 45, Methyl 1-(3-chloro-4-methylbenzyl)-5-hydroxy-2-oxo-2,3-dihydro-1H-benzo[b]azepine-4-carboxylate]",1 to 10 µM,1 to 10 µM,1 to 10 µM
"COC(=O)C1=C(O)c2ccccc2N(Cc2cccc(OC)c2)C(=O)C1 [Example 27, Methyl 5-hydroxy-1-(3-methoxybenzyl)-2-oxo-2,3-dihydro-1H-benzo[b]azepine-4-carboxylate]",10 to 30 µM,,10 to 30 µM
"COC(=O)C1=C(O)c2ccccc2N(Cc2ccc(C)cc2C)C(=O)C1 [Example 29, Methyl 1-(2,4-dimethylbenzyl)-5-hydroxy-2-oxo-2,3-dihydro-1H-benzo[b]azepine-4-carboxylate]",1 to 10 µM,1 to 10 µM,1 to 10 µM

# Source: patent publication US20240270695A1, “COMPOUNDS, COMPOSITIONS AND METHODS OF TREATING DISORDERS” (Chengdu Anticancer Bioscience LTD, priority 2021, published 2024)
